Broadly, the EC50 is the midpoint of the concentration-response curve. Broadly, the Emax is the size of the effect at its maximum, as opposed to the concentration needed.

40 compounds from ChEMBL document CHEMBL4739717, “Methods of treating cartilage disorders through inhibition of clk and dyrk” (2020) can be followed below.

For experiment [1], the target named is Dual specificity tyrosine-phosphorylation-regulated kinase 1A (Homo sapiens, UniProt Q13627). In words: Inhibition of recombinant DYRK1A (unknown origin) using Ser/Thr 18 peptide as substrate incubated for 1 hr in presence of ATP by FRET assay.
A short description of experiment [2]: Effect on Wnt signaling pathway in human SW480 cells harbouring TCF/LEF luciferase reporter gene and SP5-Luc reporter gene incubated for 36 to 48 hrs by luminescence assay. The format is cell-based. (In general: Reporter assays use an easily measured gene product as a stand-in for the process of interest.)
Experiment [3] addresses Dual specificity protein kinase CLK3 (Homo sapiens, UniProt P49761). In words: Inhibition of recombinant CLK3 (unknown origin) using Ser/Thr 18 peptide as substrate incubated for 1 hr in presence of ATP by FRET assay.
Experiment [4] in a line: Inhibition of IL1-beta induced MMP3 expression levels in human chondrocytes assessed as MMP3 levels incubated for 2hrs followed by IL1-beta stimulation and measured after overnight incubation by LANCE assay. The format is functional, cell-based. As to conditions: Chondrocyte. A general note: In TR-FRET formats the signal depends on donor and acceptor labels being close together.

Experiment [5] in a line: Induction of chondrogenesis in human MSC assessed as maximum activity at 10 nM incubated for 6 days by rhodamine B and Nile red staining based imaging analysis relative to control. The format is functional. As to conditions: BMMSC, 144 h, time 6 day.
The nature of experiment [6]: Induction of chondrogenesis in human MSC assessed as maximum activity at 300 nM incubated for 6 days by rhodamine B and Nile red staining based imaging analysis relative to control. In kind it is functional. As to conditions: BMMSC, 144 h, time 6 day.
The nature of experiment [7]: Induction of chondrogenesis in human MSC assessed as incubated for 6 days by rhodamine B and Nile red staining based imaging analysis. The format is functional. As to conditions: bmmsc.

Molecules are shown by their SMILES. Where only a bound is given, the exact number is not on record here.

Sequence of Dual specificity protein kinase CLK3 (P49761 whole entry): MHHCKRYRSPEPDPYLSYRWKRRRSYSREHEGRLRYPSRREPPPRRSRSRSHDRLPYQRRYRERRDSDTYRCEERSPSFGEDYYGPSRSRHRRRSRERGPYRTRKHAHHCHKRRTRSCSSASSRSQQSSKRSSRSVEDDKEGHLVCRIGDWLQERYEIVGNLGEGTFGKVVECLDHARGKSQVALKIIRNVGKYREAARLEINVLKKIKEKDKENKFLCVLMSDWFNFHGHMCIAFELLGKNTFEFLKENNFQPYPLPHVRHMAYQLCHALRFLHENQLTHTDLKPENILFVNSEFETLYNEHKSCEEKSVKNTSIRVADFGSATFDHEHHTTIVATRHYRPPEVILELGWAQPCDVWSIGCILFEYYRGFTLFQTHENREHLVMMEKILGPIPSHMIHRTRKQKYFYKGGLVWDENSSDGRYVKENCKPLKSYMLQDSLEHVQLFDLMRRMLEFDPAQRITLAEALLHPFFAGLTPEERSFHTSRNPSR

Consider `O=C(Nc1cccnc1)c1n[nH]cc1C#Cc1cncc(OC2CCNCC2)c1`, for which the EC50 in experiment [1] was 24 nM; in experiment [2] it was 1270 nM; in experiment [3], over 10 µM; in experiment [4], 0.2 nM.

Turning to `CN(C)CCOc1cc(C(=O)Nc2cc3cc(-c4cnn(C)c4)ccc3cn2)ccn1`, the EC50 worked out at 0.03 µM in experiment [3] and 1010 nM in experiment [4].

With `O=C(Nc1cncc(-c2cnc3[nH]nc(-c4cc5cccnc5[nH]4)c3c2)c1)c1ccccc1`, the EC50 is 14 nM in experiment [1], over 10000 nM in experiment [2] and over 10 µM in experiment [3]. For the same compound, in experiment [5], the Emax at 0.01 µM turned out to be 21.8%.

Consider `O=C(Nc1cc2cc(-c3cncs3)ccc2cn1)C1(F)CCCCC1`, for which the EC50 in experiment [1] was 8 nM; in experiment [2], over 10000 nM; in experiment [3], over 10 µM; in experiment [4] it was 3000 nM.

Consider `Cc1n[nH]c2cc(F)c(-c3cncc(CN4CCCCC4)n3)cc12`, for which the 50% effective concentration (EC50) was 60 nM in experiment [1], 2440 nM in experiment [2], 3.38 µM in experiment [3] and 3000 nM in experiment [4].

With `O=C(Cc1ccccc1)Nc1cncc(-c2ccc3[nH]nc(-c4nc5c(-c6ccncc6)ccnc5[nH]4)c3n2)c1`, the EC50 in experiment [1] was over 10000 nM; in experiment [2] it was over 10000 nM; in experiment [3], over 10 µM.

`O=C(Nc1cncc(-c2cc3c(-c4cc5c(-c6cccc(F)c6)ccnc5[nH]4)n[nH]c3cn2)c1)C1CC1`: the EC50 in experiment [1] was over 10000 nM; in experiment [2], 9.7 nM; in experiment [3], over 10 µM; in experiment [4], 298 nM.

Turning to `CN(C)CCNc1cc(F)cc(-c2cccc3[nH]c(-c4n[nH]c5ncc(-c6ccncc6)cc45)cc23)c1`, the EC50 was over 10000 nM in experiment [1], 6070 nM in experiment [2], over 10 µM in experiment [3] and 4 nM in experiment [4].

With `COc1cccc(-c2cncc3[nH]c(-c4n[nH]c5ccc(-c6cn[nH]c6)nc45)nc23)c1`, the concentration for a half-maximal effect (EC50) was over 10000 nM in experiment [1], over 10000 nM in experiment [2] and over 10 µM in experiment [3].

Regarding `Fc1cccc(-c2cncc3[nH]c(-c4n[nH]c5ccc(-c6cnccn6)nc45)nc23)c1`, the EC50 was over 10000 nM in experiment [1], over 10000 nM in experiment [2], over 10 µM in experiment [3] and 3000 nM in experiment [4].

For the compound `Nc1cncc(-c2cnc3[nH]nc(-c4cc5c(-c6ccncc6)ccnc5[nH]4)c3c2)c1`, the 50% effective concentration (EC50) was 19 nM in experiment [1], over 10000 nM in experiment [2] and over 10 µM in experiment [3].

As to `Fc1ccc(-c2cccc3[nH]c(-c4n[nH]c5ccc(-c6cncnc6)nc45)nc23)cc1`, the EC50 is over 10000 nM in experiment [1], over 10000 nM in experiment [2], over 10 µM in experiment [3] and 3000 nM in experiment [4].

Turning to `COc1cncc(C#Cc2c[nH]nc2C(=O)Nc2ccc(N3CCNCC3)nc2)c1`, the EC50 in experiment [1] was 11 nM; in experiment [2], over 10000 nM; in experiment [3], over 10 µM. Further, in experiment [5], the Emax at 0.01 µM was 74.7%.

As for `CN1CCN(c2ccnc3[nH]c(-c4n[nH]c5cnc(-c6cncc(CNCC7CCCC7)c6)cc45)cc23)CC1`, the EC50 in experiment [1] is 51 nM; in experiment [2], over 10000 nM; in experiment [7], 300 nM. For the same compound, the Emax at 0.3 µM in experiment [6] came to 150%.

For `O=C(Nc1cc2cc(-c3cnco3)cnc2cn1)[C@H]1CC[C@H](CO)CC1`, the EC50 was over 10000 nM in experiment [2] and over 10 µM in experiment [3].

In the case of `Fc1ccc(-c2cccc3[nH]c(-c4n[nH]c5ncc(-c6cncc(CN7CCCCC7)c6)cc45)cc23)cc1`, the EC50 in experiment [1] was over 10000 nM; in experiment [2] it was 3660 nM; in experiment [3], over 10 µM; in experiment [4], 46.1 nM.

On to `Fc1ccccc1-c1nccc2[nH]c(-c3n[nH]c4cnc(-c5cn[nH]c5)cc34)cc12`, for which the EC50 in experiment [1] was determined as 63 nM; in experiment [2] it was 30.5 nM; in experiment [7], 10 nM. In experiment [6], the Emax at 0.3 µM is 89.2%.

In the case of `O=C(Nc1c[nH]nc1C(=O)Nc1ccc(N2CCC(F)(F)C2)nc1)c1cncc(OC2CCNCC2)c1`, the EC50 was 10 nM in experiment [1], 2220 nM in experiment [2] and 280 nM in experiment [4]. The Emax at 0.3 µM in experiment [6] worked out at 75.2%.

Consider `Fc1ccc(-c2cncc3[nH]c(-c4n[nH]c5cnc(-c6cncc(CN7CCC(F)(F)C7)c6)cc45)cc23)cc1`, for which the EC50 stood at 30 nM in experiment [1], 3260 nM in experiment [2] and 100 nM in experiment [7]. In experiment [6], the Emax at 0.3 µM was found to be 78.4%.

As for `Cc1ccncc1-c1ccc2[nH]nc(-c3cc4ccncc4[nH]3)c2c1`, the EC50 stood at 21 nM in experiment [1], 191 nM in experiment [2] and 300 nM in experiment [7]. Further, the maximal response (Emax) at 0.3 µM in experiment [6] was determined as 161%.

With `Nc1cncc(-c2ccc3[nH]nc(-c4nc5c(-c6ccccc6F)nccc5[nH]4)c3n2)c1`, the values for the EC50 in experiment [1], in experiment [2] and in experiment [7] were 8 nM, over 10000 nM and 10 nM, respectively. Besides, in experiment [6], the Emax at 0.3 µM was determined as 108%.

With `O=C(Nc1cncc(-c2cc3c(-c4cc5cnccc5[nH]4)n[nH]c3cn2)c1)c1ccccc1`, the EC50 in experiment [1] was 3 nM; in experiment [2], 580 nM; in experiment [7], 10 nM. The Emax at 0.3 µM in experiment [6] turned out to be 152%.

Take `COc1ccc(NC(=O)c2n[nH]c3ccc(-c4cncc(CN5CCCCC5)c4)cc23)cn1`: the EC50 turned out to be 1 nM in experiment [1], 15 nM in experiment [2] and 300 nM in experiment [7]. The Emax at 0.3 µM in experiment [6] turned out to be 138%.

Turning to `CCC(=O)Nc1cncc(-c2ccc3[nH]nc(-c4nc5c(N6CCCCC6)cncc5[nH]4)c3n2)c1`, the EC50 in experiment [1] was 16 nM; in experiment [2], over 10000 nM; in experiment [7], 900 nM. Further, the Emax at 0.3 µM in experiment [6] came to 69.8%.

As to `O=C(Nc1cccnc1)Nc1c[nH]nc1C(=O)Nc1ccc(C(F)(F)F)nc1`, the EC50 is 22 nM in experiment [1], 679 nM in experiment [2], over 10 µM in experiment [3] and 8.7 nM in experiment [4].

Take `O=C(Nc1cncc(-c2ccc3[nH]nc(-c4nc5c(-c6ccc(F)cc6)cncc5[nH]4)c3c2)c1)C1CCC1`: the EC50 in experiment [1] is 73 nM; in experiment [2], 5.7 nM; in experiment [7], 100 nM. Moreover, the Emax at 0.3 µM in experiment [6] came to 203%.

For the compound `O=C(Nc1ccnc(C(F)(F)F)c1)c1n[nH]c2ccc(-c3cncc(CN4CCCCC4)c3)cc12`, the values for the EC50 in experiment [1], in experiment [2] and in experiment [7] were 4 nM, 36.4 nM and 100 nM, respectively. Also, the Emax at 0.3 µM in experiment [6] turned out to be 69%.

Take `COc1cccc(-c2cncc3[nH]c(-c4n[nH]c5ccc(-c6cncc(NC(=O)C7CCCCC7)c6)nc45)nc23)c1`: the EC50 in experiment [1] was over 10000 nM; in experiment [2] it was over 10000 nM; in experiment [3], over 10 µM; in experiment [4], 3000 nM.

`O=C(Nc1cncc(-c2ccc3[nH]nc(-c4cc5c(-c6ccncc6)nccc5[nH]4)c3c2)c1)C1CCCC1`: the values for the EC50 in experiment [1], in experiment [2] and in experiment [7] were 11 nM, over 10000 nM and 30 nM, respectively. For the same compound, in experiment [6], the Emax at 0.3 µM is 114%.

As to `Nc1cncc(-c2cc3c(-c4cc5c(-c6ccccc6F)nccc5[nH]4)n[nH]c3cn2)c1`, the EC50 in experiment [1] worked out at 5 nM; in experiment [2] it was 224 nM; in experiment [7] it was 10 nM. In addition, the Emax at 0.3 µM in experiment [6] is 117%.

With `Cc1ccncc1-c1ccc2[nH]nc(-c3nc4c(-c5ccsc5)nccc4[nH]3)c2c1`, the concentration for a half-maximal effect (EC50) in experiment [1] came out at 52 nM; in experiment [2], 18.9 nM; in experiment [7] it was 10 nM. For the same compound, the Emax at 0.3 µM in experiment [6] came to 156%.

With `O=C(Nc1cncc(-c2cnc3[nH]nc(-c4nc5c(-c6cccnc6)cncc5[nH]4)c3c2)c1)C1CCC1`, the results for the EC50 in experiment [1], in experiment [2] and in experiment [7] were 11 nM, 35.4 nM and 300 nM, respectively. Moreover, the Emax at 0.3 µM in experiment [6] was found to be 130%.

Take `CC(C)N1CCC(c2nc(C(=O)Nc3cc4cc(-c5cnn(C)c5)ccc4cn3)co2)CC1`: the EC50 in experiment [2] is 80 nM; in experiment [3] it was 0.02 µM; in experiment [4], 57.3 nM.

With `CC(F)(F)CN1CCC(C(=O)Nc2cc3cc(-c4cnco4)cnc3cn2)CC1`, the EC50 in experiment [2] is over 10000 nM; in experiment [3] it was over 10 µM; in experiment [4], 3000 nM.

In the case of `CN1CCN(c2nccc3[nH]c(-c4n[nH]c5ccc(-c6cncc(CN7CCCCC7)c6)nc45)cc23)CC1`, the EC50 turned out to be 15 nM in experiment [1], 4160 nM in experiment [2] and 10 nM in experiment [7]. Further, the Emax at 0.3 µM in experiment [6] was determined as 70.8%.

For `CN(C)CCNc1cc(F)cc(-c2cncc3[nH]c(-c4n[nH]c5ncc(-c6cccnc6)cc45)nc23)c1`, the EC50 amounted to 5 nM in experiment [1], 21 nM in experiment [2] and 300 nM in experiment [7]. Moreover, in experiment [6], the Emax at 0.3 µM was 129%.

As for `COc1cncc(-c2ccc3[nH]nc(-c4nc5c(N6CCCCC6)ccnc5[nH]4)c3n2)c1`, the EC50 is over 10000 nM in experiment [1], over 10000 nM in experiment [2], over 10 µM in experiment [3] and 123 nM in experiment [4].

On to `CC(C)(C)C(=O)Nc1cncc(-c2ccc3[nH]nc(-c4nc5c(-c6ccc(F)s6)ccnc5[nH]4)c3c2)c1`, for which the half-maximal effective concentration (EC50) in experiment [1] was 98 nM; in experiment [2], 16.7 nM; in experiment [7], 30 nM. Besides, the Emax at 0.3 µM in experiment [6] came out at 120%.

On to `CN1CC2CCC(C1)N2C(=O)Nc1cc2cc(-c3cnn(C)c3)ccc2cn1`, for which the values for the EC50 in experiment [2] and in experiment [3] were over 10000 nM and over 10 µM, respectively.

For `COc1cccc(-c2cncc3[nH]c(-c4n[nH]c5ccc(-c6cccnc6)nc45)nc23)c1`, the EC50 is 30 nM in experiment [1], over 10000 nM in experiment [2] and 30 nM in experiment [7]. In addition, in experiment [6], the Emax at 0.3 µM was 59.2%.
